The structures appear in SMILES notation. Like-named read-outs stand apart in the source and are kept apart here.

The values that follow come from US10273240B2, “Cortistatin analogues, syntheses, and uses thereof” (President and Fellows of Harvard College, priority 2015, dated 2019).

One test relates to MV4;11. As to the kind of experiment: Cell growth assay, MV4;11. In kind it is cell-based. The settings on record: Homo sapiens. As for the experimental part:
All media was supplemented with 100 U/mL penicillin and 100 μg/mL streptomycin. Human cancer cell lines were grown in the following media: MV4; 11, K562, MOLM-14 in RPMI-1640, 10% FBS; SKNO-1 in RPMI-1640, 10% FBS, and 10 ng/mL GM-CSF; MV4;11 and K562 were from ATCC. SKNO-1 was from DSMZ.
Cell Culture. All media was supplemented with 100 U/mL penicillin and 100 μg/mL streptomycin. Human cancer cell lines were grown in the following media: MV4; 11, RS4; 11, K562, HEL, MOLM-14, MEG-01 in RPMI-1640, 10% FBS; SET-2 in RPMI-1640, 20% FBS; UKE-1 in RPMI-1640, 10% FBS, 10% horse serum and 1 μM hydrocortisone; SKNO-1 and TF-1 in RPMI-1640, 10% FBS, and 10 or 2 ng/mL GM-CSF, respectively; HaCaT in DMEM, 10% FBS; and HCT116 in McCoy's 5 A, 10% FBS (proliferation assay) or DMEM, 10% FBS (gene expression study). HepG2, MV4;11, RS4;11, MEG-01, TF-1, HCT116 and K562 were from ATCC. SKNO-1 was from DSMZ. HEL, UKE-1, and SET-2 were provided by Ross L. Levine and HaCaT, MV4;11-mCLP, and MOLM-14 by Van Wilson, Andrew L. Kung, and Scott A. Armstrong, respectively. MOLM-14 cells were authenticated by STR profiling and flow cytometry and all cell lines were routinely tested and found to be negative for mycoplasma.

In test [1] the target is T1, CDK9 in MOLM-14 cell lysate (Homo sapiens, UniProt P50750).
T1 construct: endogenous in cells; host or cells: MOLM-14 cell lysate
T1 sequence (P50750 whole entry): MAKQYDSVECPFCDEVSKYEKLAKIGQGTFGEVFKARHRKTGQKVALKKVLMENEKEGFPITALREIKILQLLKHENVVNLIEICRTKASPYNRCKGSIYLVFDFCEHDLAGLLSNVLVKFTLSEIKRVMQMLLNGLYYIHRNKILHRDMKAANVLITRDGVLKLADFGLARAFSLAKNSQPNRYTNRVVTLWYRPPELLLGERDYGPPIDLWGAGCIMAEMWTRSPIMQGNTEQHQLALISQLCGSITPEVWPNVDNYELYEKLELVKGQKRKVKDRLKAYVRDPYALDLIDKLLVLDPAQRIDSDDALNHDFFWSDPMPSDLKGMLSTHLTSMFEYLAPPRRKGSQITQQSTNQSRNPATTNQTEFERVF
T1 sequence (O60563 whole entry partner): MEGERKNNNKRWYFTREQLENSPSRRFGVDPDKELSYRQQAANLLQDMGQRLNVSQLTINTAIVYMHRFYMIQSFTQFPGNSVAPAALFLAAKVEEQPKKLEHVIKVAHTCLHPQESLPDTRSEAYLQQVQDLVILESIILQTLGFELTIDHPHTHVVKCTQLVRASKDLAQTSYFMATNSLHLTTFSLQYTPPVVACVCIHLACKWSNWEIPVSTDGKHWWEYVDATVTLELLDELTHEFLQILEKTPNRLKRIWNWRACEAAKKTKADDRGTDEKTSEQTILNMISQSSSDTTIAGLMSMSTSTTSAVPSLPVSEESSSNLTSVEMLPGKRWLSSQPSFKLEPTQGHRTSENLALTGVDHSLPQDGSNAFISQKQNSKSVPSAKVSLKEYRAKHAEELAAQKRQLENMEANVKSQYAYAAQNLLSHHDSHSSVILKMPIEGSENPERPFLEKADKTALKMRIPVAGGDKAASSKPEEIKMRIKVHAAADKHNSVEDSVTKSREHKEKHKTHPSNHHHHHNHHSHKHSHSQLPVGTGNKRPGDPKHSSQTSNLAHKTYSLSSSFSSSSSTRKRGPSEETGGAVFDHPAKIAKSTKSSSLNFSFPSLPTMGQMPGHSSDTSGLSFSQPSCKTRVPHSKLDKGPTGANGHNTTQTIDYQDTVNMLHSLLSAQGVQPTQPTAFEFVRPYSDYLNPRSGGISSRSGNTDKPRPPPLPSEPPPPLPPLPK
As to the kind of experiment: Native kinase capture immunoblot, CDK9. The class given is binding. As for the experimental part:
(§1) Native Kinase Capture Immunoblot and Native Kinome-Wide Profiling. […] Experiment was performed twice with one immunoblot shown.

Test [2] deals with T2, CDK12 in MOLM-14 cell lysate (Homo sapiens, UniProt Q9NYV4).
T2 construct: endogenous in cells; host or cells: MOLM-14 cell lysate
T2 sequence (Q9NYV4 whole entry): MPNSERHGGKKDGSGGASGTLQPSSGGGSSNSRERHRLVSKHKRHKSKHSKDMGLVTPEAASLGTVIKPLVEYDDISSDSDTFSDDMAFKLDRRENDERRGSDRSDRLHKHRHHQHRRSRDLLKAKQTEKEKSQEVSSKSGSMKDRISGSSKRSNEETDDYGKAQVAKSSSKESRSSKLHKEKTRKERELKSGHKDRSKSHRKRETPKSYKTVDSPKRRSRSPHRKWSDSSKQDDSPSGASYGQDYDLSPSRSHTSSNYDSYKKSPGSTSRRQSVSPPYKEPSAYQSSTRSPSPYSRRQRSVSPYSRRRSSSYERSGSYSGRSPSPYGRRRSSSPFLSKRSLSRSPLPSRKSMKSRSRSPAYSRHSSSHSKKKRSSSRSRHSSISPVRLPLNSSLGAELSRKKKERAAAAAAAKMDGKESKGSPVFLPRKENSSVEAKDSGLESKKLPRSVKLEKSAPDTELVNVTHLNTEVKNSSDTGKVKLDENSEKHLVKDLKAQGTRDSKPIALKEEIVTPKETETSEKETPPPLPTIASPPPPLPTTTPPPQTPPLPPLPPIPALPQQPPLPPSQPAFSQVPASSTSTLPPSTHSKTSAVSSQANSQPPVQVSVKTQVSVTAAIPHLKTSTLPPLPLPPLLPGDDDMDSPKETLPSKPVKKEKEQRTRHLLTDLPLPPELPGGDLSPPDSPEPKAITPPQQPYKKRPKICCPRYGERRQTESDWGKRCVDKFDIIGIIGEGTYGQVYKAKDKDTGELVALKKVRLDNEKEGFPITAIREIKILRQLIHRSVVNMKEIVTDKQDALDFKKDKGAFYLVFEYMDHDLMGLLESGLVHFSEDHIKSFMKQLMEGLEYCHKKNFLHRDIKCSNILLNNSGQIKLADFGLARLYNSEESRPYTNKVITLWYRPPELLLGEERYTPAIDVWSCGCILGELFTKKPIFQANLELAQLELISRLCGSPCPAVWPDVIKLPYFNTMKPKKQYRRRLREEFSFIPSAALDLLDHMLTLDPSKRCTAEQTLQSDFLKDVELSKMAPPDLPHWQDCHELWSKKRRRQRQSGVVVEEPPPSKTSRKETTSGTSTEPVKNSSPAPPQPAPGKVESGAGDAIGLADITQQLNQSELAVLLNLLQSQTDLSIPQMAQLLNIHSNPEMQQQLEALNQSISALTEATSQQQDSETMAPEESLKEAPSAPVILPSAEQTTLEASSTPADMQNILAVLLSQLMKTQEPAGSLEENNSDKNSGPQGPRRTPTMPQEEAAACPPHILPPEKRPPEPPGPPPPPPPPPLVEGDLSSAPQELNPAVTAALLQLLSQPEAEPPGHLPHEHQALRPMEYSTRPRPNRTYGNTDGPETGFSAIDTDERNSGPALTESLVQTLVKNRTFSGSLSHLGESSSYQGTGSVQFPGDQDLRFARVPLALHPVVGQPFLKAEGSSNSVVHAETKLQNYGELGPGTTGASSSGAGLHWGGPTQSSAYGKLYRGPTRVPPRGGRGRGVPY
T2 sequence (O75909 whole entry partner): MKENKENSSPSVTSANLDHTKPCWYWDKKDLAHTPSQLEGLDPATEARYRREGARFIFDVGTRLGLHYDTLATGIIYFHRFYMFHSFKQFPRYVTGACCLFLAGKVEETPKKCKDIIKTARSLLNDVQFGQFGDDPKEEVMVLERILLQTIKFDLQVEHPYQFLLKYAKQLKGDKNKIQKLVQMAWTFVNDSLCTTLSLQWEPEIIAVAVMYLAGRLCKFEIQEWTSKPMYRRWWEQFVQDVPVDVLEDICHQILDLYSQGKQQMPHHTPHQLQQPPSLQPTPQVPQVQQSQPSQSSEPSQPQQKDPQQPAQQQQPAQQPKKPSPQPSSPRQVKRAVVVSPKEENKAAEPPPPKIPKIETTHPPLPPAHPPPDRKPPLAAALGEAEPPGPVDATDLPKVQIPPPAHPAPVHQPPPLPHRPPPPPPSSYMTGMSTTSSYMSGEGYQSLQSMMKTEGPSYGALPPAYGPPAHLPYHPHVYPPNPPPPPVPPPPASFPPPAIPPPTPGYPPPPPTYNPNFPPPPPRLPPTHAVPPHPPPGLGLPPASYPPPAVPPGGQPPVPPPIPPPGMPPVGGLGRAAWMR
Description: Native kinase capture immunoblot, CDK12. The class given is binding. As for the experimental part:
as §1
(A western blot detects proteins with antibodies after separation by electrophoresis.)

The target of test [3] is T3, ROCK1 in MOLM-14 cell lysate (Homo sapiens, UniProt Q13464).
T3 construct: endogenous in cells; host or cells: MOLM-14 cell lysate
T3 sequence (Q13464 whole entry): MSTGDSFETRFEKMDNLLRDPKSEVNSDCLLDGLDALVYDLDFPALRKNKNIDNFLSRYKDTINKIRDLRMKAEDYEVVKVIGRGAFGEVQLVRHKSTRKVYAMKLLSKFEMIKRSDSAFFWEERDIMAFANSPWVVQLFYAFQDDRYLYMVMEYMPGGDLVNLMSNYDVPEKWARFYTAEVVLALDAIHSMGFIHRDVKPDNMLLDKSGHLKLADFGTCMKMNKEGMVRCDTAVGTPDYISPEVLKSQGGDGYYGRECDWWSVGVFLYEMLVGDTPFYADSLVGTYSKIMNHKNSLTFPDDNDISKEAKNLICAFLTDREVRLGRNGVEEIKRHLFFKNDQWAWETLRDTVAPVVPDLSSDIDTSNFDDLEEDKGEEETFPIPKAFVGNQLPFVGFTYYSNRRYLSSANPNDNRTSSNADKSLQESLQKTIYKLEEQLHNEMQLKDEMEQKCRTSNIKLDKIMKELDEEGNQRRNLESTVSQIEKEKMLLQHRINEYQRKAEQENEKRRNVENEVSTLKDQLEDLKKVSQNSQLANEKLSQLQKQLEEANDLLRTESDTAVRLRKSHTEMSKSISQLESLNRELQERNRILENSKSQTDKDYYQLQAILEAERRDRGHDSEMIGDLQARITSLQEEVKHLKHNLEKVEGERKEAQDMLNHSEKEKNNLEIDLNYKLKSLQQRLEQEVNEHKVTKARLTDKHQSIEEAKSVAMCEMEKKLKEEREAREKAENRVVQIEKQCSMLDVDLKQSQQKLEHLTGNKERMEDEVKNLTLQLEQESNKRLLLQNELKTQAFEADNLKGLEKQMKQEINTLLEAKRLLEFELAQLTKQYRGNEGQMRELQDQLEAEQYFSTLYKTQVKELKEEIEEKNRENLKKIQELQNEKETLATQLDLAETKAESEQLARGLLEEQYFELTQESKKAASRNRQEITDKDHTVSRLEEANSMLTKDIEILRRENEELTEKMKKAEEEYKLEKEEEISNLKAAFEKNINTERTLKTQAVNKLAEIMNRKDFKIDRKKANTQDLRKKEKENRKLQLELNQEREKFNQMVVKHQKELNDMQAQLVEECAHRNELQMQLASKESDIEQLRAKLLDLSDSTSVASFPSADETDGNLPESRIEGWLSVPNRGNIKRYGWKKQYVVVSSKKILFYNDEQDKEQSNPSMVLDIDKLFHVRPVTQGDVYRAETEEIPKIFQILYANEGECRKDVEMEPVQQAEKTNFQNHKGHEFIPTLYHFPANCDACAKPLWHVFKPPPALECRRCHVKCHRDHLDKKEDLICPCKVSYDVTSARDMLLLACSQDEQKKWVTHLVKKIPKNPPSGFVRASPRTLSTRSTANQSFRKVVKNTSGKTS
As to the kind of experiment: Native kinase capture immunoblot, ROCK1. The class given is binding. As for the experimental part:
as §1

Another test addresses T4, CDK8 module (Homo sapiens, UniProt P49336).
T4 construct: made in house
Description: In vitro kinase assay, CDK8 module. In kind it is biochemical.

The target in a further test is T5, CDK7 (TFIIH) (Homo sapiens, UniProt P50613).
T5 construct: TFIIH was captured from HeLa nuclear extract; endogenous in cells; host or cells: HeLa nuclear extract
As to the kind of experiment: In vitro kinase assay, CDK7 (TFIIH). In kind it is biochemical. The method, then:
Kinase Assays. Data was quantified with ImageJ and plotted and fitted with GraphPad Prism 6.0. For STAT1 transactivation domain (TAD), 750 ng of GST-STAT1 TAD (residues 639-750) was incubated with ˜50 ng recombinant CDK8 module at 30° C. for 8 min in kinase buffer (25 mM Tris pH 8, 2 mM DTT, 100 μM cold ATP, 100 mM KCl, 10 mM MgCl2 and 2.5 μCi [γ-^32P] ATP (Perkin Elmer) per reaction). […] 12% SDS-PAGE gels were subsequently silver stained, exposed for 18 h on a Phosphor Screen and imaged (Typhoon 9400, GE Life Sciences). For pol II CTD, 400 ng of GST-CTD (murine sequence) was incubated with ˜40 ng recombinant CDK8 module, 25 ng TFIIH, or 40 ng P-TEFb at 30° C. for 60 min in kinase buffer. Kinase amounts were chosen to give similar total pol II CTD signal. 9% SDS-PAGE gels were silver stained and exposed as above. In vitro FLAG-CDK8 kinase assays used ˜40 ng kinase and 500 ng GST-CTD. For STAT1 or Smad2/3, cells were treated with compound for 1 h followed by IFN-γ or TGF-β1 for 1 h, then washed twice with cold PBS, and lysed (RIPA buffer with inhibitors R0278, P8340, P0044, P5762 Sigma-Aldrich). Standard immunoblotting was then performed with one immunoblot shown. All experiments were performed twice.
Protein Purification. Buffers for purification and elution of recombinant proteins included 0.25 mM PMSF, 1 mM DTT, 1 mM benzamidine, and 1 mM sodium metabisulfite. […]

Description for CDK8 module: Data was quantified with ImageJ and plotted and fitted with GraphPad Prism 6.0. For STAT1 transactivation domain (TAD), 750 ng of GST-STAT1 TAD (residues 639-750) was incubated with ˜50 ng recombinant CDK8 module at 30° C. for 8 min in kinase buffer (25 mM Tris pH 8, 2 mM DTT, 100 μM cold ATP, 100 mM KCl, 10 mM MgCl2 and 2.5 μCi [γ-^32P] ATP (Perkin Elmer) per reaction). […] 12% SDS-PAGE gels were subsequently silver stained, exposed for 18 h on a Phosphor Screen and imaged (Typhoon 9400, GE Life Sciences). For pol II CTD, 400 ng of GST-CTD (murine sequence) was incubated with ˜40 ng recombinant CDK8 module, 25 ng TFIIH, or 40 ng P-TEFb at 30° C. for 60 min in kinase buffer. Kinase amounts were chosen to give similar total pol II CTD signal. 9% SDS-PAGE gels were silver stained and exposed as above. In vitro FLAG-CDK8 kinase assays used ˜40 ng kinase and 500 ng GST-CTD. […] All experiments were performed twice.

`CN(C)[C@H]1C[C@@]23CC[C@@]4(O2)C(=CC[C@@]2(C)[C@@H](c5ccc6ccncc6c5)CC[C@H]24)C=C3[C@@H](O)[C@@H]1O` [CA, cortistatin A]: the GI50 in the test on MV4;11 (MV4-11, 240 h, CA, after 10 days, read-out: Mean GI50 (nM), MV4;11) stood at 6 nM; in the test on MV4;11 (MV4-11, 240 h, read-out: MV4;11 GI50 day 10), 3.5 nM; with MV4;11 (MV4-11, Table 5, read-out: GI50 (nM), MV4;11), 6 nM. For the same molecule, in test [1], the “binding of CDK9 (no binding at up to)” value is recorded as more than 2500 nM. The “binding of CDK12 (no binding at up to)” value in test [2] is given as more than 2500 nM. In test [3], the “binding of ROCK1 (no binding up to)” value is more than 2500 nM. The “inhibition of kinase activity of the CDK8 module” value on CDK8 module is “potently inhibited”. Also, the “inhibition of CDK7 (TFIIH)” value against CDK7 (TFIIH) is on record as “did not inhibit”.
